Experimental data reported in ChEMBL document CHEMBL2401638, “Design and synthesis of biquinolone-isoniazid hybrids as a new class of antitubercular and antimicrobial agents” (Eur J Med Chem, 2013).
In brackets after ≈: the same amount, converted by molar mass.

Assays:
Clostridium tetani = assay: Antibacterial activity against Clostridium tetani MTCC 449 assessed as growth inhibition by broth microdilution method; type: functional
[1] = Cytotoxicity in Artemia cysts assessed as mortality of nauplii at 20 ug/mL after 24 hrs relative to control; type: organism-based; details: in vivo
[2] = test system: Mycobacterium tuberculosis; assay: Antituberculosis activity against Mycobacterium tuberculosis H37Rv assessed as growth inhibition at 250 ug/ml after 12 to 28 days by Lowenstein-Jensen method relative to control; type: functional; details: read-out: GI
Candida albicans = assay: Antifungal activity against Candida albicans MTCC 227 assessed as growth inhibition by broth microdilution method; type: functional
Pseudomonas aeruginosa = assay: Antibacterial activity against Pseudomonas aeruginosa MTCC 1688 assessed as growth inhibition by broth microdilution method; type: functional
[3] = Cytotoxicity in Artemia cysts assessed as mortality of nauplii at 50 ug/mL after 24 hrs relative to control; type: organism-based; details: in vivo
[4] = Cytotoxicity in Artemia cysts assessed as mortality of nauplii at 10 ug/mL after 24 hrs relative to control; type: organism-based; details: in vivo
[5] = test system: Mycobacterium tuberculosis; assay: Antituberculosis activity against Mycobacterium tuberculosis H37Rv assessed as growth inhibition after 12 to 28 days by Lowenstein-Jensen method; type: functional
[6] = Cytotoxicity in Artemia cysts assessed as mortality of nauplii at 40 ug/mL after 24 hrs relative to control; type: organism-based; details: in vivo
Bacillus subtilis = assay: Antibacterial activity against Bacillus subtilis MTCC 441 assessed as growth inhibition by broth microdilution method; type: functional
Staphylococcus aureus = assay: Antibacterial activity against Staphylococcus aureus MTCC 96 assessed as growth inhibition by broth microdilution method; type: functional
Trichophyton rubrum = assay: Antifungal activity against Trichophyton rubrum MTCC 296 assessed as growth inhibition by broth microdilution method; type: functional
[7] = Cytotoxicity in Artemia cysts assessed as mortality of nauplii after 24 hrs; type: organism-based; details: in vivo
Escherichia coli = assay: Antibacterial activity against Escherichia coli MTCC 443 assessed as growth inhibition by broth microdilution method; type: functional
[8] = Cytotoxicity in Artemia cysts assessed as mortality of nauplii at 5 ug/mL after 24 hrs relative to control; type: organism-based; details: in vivo
Salmonella typhi = assay: Antibacterial activity against Salmonella typhi MTCC 98 assessed as growth inhibition by broth microdilution method; type: functional, Salmonella enterica subsp. enterica serovar Typhi; details: Salmonella enterica
[9] = Cytotoxicity in Artemia cysts assessed as mortality of nauplii at 30 ug/mL after 24 hrs relative to control; type: organism-based; details: in vivo

Row | SMILES | MIC (Clostridium tetani) | mortality at 24 h, 20 ug/mL [1] | inhibition of growth at 250 µg/mL [2] | MIC (Candida albicans) | MIC (Pseudomonas aeruginosa) | mortality at 24 h, 50 ug/mL [3] | mortality at 24 h, 10 ug/mL [4] | MIC [5] | mortality at 24 h, 40 ug/mL [6] | MIC (Bacillus subtilis) | MIC (Staphylococcus aureus) | MIC (Trichophyton rubrum) | LC50 at 24 h [7] | MIC (Escherichia coli) | mortality at 24 h, 5 ug/mL [8] | MIC (Salmonella typhi) | mortality at 24 h, 30 ug/mL [9]
1 | C=CCn1c(=O)c(C2C(C(=O)OCC)=C(N)N(NC(=O)c3ccncc3)C3=C2C(=O)CC(C)(C)C3)cc2cc(C)ccc21 (stereo not given) | 125 µg/mL | 30% | 94% | 500 µg/mL | 500 µg/mL | 80% | 20% | 62.5 µg/mL (≈ 107 µM) | 60% | 500 µg/mL | 125 µg/mL | 1000 µg/mL | 28.6 µg/mL (≈ 49.1 µM) | 62.5 µg/mL | 0% | 125 µg/mL | 40%
2 | C=CCn1c(=O)c(C2C(C(=O)OC(C)C)=C(N)N(NC(=O)c3ccncc3)C3=C2C(=O)CC(C)(C)C3)cc2cc(Cl)ccc21 (stereo not given) | 125 µg/mL | 30% | 94% | 1000 µg/mL | 500 µg/mL | 90% | 10% | 62.5 µg/mL (≈ 101 µM) | 70% | 500 µg/mL | 125 µg/mL | 500 µg/mL | 24.5 µg/mL (≈ 39.7 µM) | 200 µg/mL | 0% | 125 µg/mL | 50%
3 | C=CCn1c(=O)c(C2C(C(=O)OC)=C(N)N(NC(=O)c3ccncc3)C3=C2C(=O)CC(C)(C)C3)cc2cc(C)ccc21 (stereo not given) | 500 µg/mL | 20% | 99% | 500 µg/mL | 250 µg/mL | 70% | 10% | 25 µg/mL (≈ 44 µM) | 60% | 200 µg/mL | 500 µg/mL | > 1000 µg/mL | 34.6 µg/mL (≈ 60.9 µM) | 125 µg/mL | 0% | 100 µg/mL | 40%
4 | C=CCn1c(=O)c(C2C(C(=O)OC(C)C)=C(N)N(NC(=O)c3ccncc3)C3=C2C(=O)CC(C)(C)C3)cc2cc(C)ccc21 (stereo not given) | 500 µg/mL | 30% | 99% | 500 µg/mL | 200 µg/mL | 70% | 10% | 12.5 µg/mL (≈ 21 µM) | 50% | 500 µg/mL | 500 µg/mL | 1000 µg/mL | 35.4 µg/mL (≈ 59.4 µM) | 125 µg/mL | 0% | 200 µg/mL | 40%
5 | C=CCn1c(=O)c(C2C(C(=O)OC)=C(N)N(NC(=O)c3ccncc3)C3=C2C(=O)CCC3)cc2cc(OC)ccc21 (stereo not given) | 125 µg/mL | 40% | 98% | 1000 µg/mL | 125 µg/mL | 90% | 20% | 50 µg/mL (≈ 90 µM) | 80% | 50 µg/mL | 200 µg/mL | > 1000 µg/mL | 19.7 µg/mL (≈ 35.4 µM) | 100 µg/mL | 10% | 125 µg/mL | 60%
